Data published in PubChem BioAssay AID248 (DTP/NCI, 2004).
Where “and” joins values, the source holds several entries; their conditions need not be identical. Equal entries are not always repeated. Inconclusive results and toxic doses are left out.

System: L1210 leukemia ip in BDF1 mice, survival T/C
Assay: NCI In Vivo Anticancer Drug Screen. Data for tumor model L1210 Leukemia (intraperitoneal) in B6D2F1 (BDF1) mice
Settings: higher = longer survival
How it was run: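 Mice bearing the transplanted tumor received compound or vehicle. Survival of the treated group was divided by that of the vehicle-treated control group to give the ratio.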

[1] = endpoint: mean survival time, dose: 25.0 mg/kg/injection, schedule: Q01DX009 (ip), vehicle: saline with Tween-80
[2] = endpoint: mean survival time, dose: 50.0 mg/kg/injection, schedule: Q01DX009 (ip), vehicle: saline with Tween-80
[3] = endpoint: mean survival time, dose: 100.0 mg/kg/injection, schedule: Q01DX009 (ip), vehicle: Klucel (hydroxypropylcellulose) (HPC)
[4] = endpoint: mean survival time, dose: 200.0 mg/kg/injection, schedule: Q01DX009 (ip), vehicle: Klucel (hydroxypropylcellulose) (HPC)
[5] = endpoint: mean survival time, dose: 400.0 mg/kg/injection, schedule: Q01DX009 (ip), vehicle: Klucel (hydroxypropylcellulose) (HPC)
[6] = endpoint: mean survival time, dose: 100.0 mg/kg/injection, schedule: Q01DX001 (ip), vehicle: carboxymethylcellulose (CMC)
[7] = endpoint: mean survival time, dose: 200.0 mg/kg/injection, schedule: Q01DX001 (ip), vehicle: carboxymethylcellulose (CMC)
[8] = endpoint: mean survival time, dose: 100.0 mg/kg/injection, schedule: Q04DX003 (ip), vehicle: Klucel (hydroxypropylcellulose) (HPC)
[9] = endpoint: mean survival time, dose: 200.0 mg/kg/injection, schedule: Q04DX003 (ip), vehicle: Klucel (hydroxypropylcellulose) (HPC)
[10] = endpoint: mean survival time, dose: 400.0 mg/kg/injection, schedule: Q04DX003 (ip), vehicle: Klucel (hydroxypropylcellulose) (HPC)
[11] = endpoint: mean survival time, dose: 100.0 mg/kg/injection, schedule: Q01DX009 (ip), vehicle: saline
[12] = endpoint: mean survival time, dose: 200.0 mg/kg/injection, schedule: Q01DX009 (ip), vehicle: saline

CCOC(=O)C(CC#N)C(=O)OCC
T/C (endpoint: mean survival time, dose: 75.0 mg/kg/injection, schedule: Q01DX001 (ip), vehicle: carboxymethylcellulose (CMC)): 104 % of control
T/C (endpoint: mean survival time, dose: 150.0 mg/kg/injection, schedule: Q01DX001 (ip), vehicle: carboxymethylcellulose (CMC)): 98 % of control
T/C (endpoint: mean survival time, dose: 300.0 mg/kg/injection, schedule: Q01DX001 (ip), vehicle: carboxymethylcellulose (CMC)): 96 % of control

COc1ccc(SC(=O)Nc2cc([N+](=O)[O-])ccc2Cl)cc1
T/C [1]: 89 % of control
T/C [2]: 89 % of control

CCCCCCCC/C=C\CCCCCCCC(=O)NCCOC
T/C (endpoint: mean survival time, dose: 37.5 mg/kg/injection, schedule: Q01DX009 (ip), vehicle: saline): 97 % of control
T/C (endpoint: mean survival time, dose: 75.0 mg/kg/injection, schedule: Q01DX009 (ip), vehicle: saline): 92 % of control
T/C (endpoint: mean survival time, dose: 75.0 mg/kg/injection, schedule: Q04DX003 (ip), vehicle: saline): 90 % of control
T/C (endpoint: mean survival time, dose: 150.0 mg/kg/injection, schedule: Q01DX009 (ip), vehicle: saline): 99 % of control
T/C (endpoint: mean survival time, dose: 150.0 mg/kg/injection, schedule: Q04DX003 (ip), vehicle: saline): 98 % of control
T/C (endpoint: mean survival time, dose: 300.0 mg/kg/injection, schedule: Q04DX003 (ip), vehicle: saline): 88 % of control

C[N+](C)(C)C12CCCCC1S(=O)(=O)C2 (configuration not stated)
T/C (endpoint: mean survival time, dose: 75.0 mg/kg/injection, schedule: Q01DX001 (ip), vehicle: saline): 108 % of control

Cc1ccc(NC(=O)Oc2ccc(Cl)cc2Cl)cc1NC(=O)Oc1ccc(Cl)cc1Cl
T/C [3]: 89 % of control
T/C [4]: 94 % of control
T/C [5]: 89 % of control

COP(=O)(OC)OC=C(Cl)Cl
T/C (endpoint: mean survival time, dose: 25.0 mg/kg/injection, schedule: Q04DX002 (ip), vehicle: saline): 94 % of control
T/C (endpoint: mean survival time, dose: 50.0 mg/kg/injection, schedule: Q04DX002 (ip), vehicle: saline): 105 % of control
T/C (endpoint: mean survival time, dose: 100.0 mg/kg/injection, schedule: Q04DX002 (ip), vehicle: saline): 98 % of control

CCCCCN(C)/N=N/c1nc[nH]c1C(N)=O
T/C (endpoint: mean survival time, dose: 7.5 mg/kg/injection, schedule: Q01DX Z (ip), vehicle: carboxymethylcellulose (CMC)): 102 % of control
T/C (endpoint: mean survival time, dose: 10.0 mg/kg/injection, schedule: Q01DX Z (ip), vehicle: carboxymethylcellulose (CMC)): 110 % of control
T/C (endpoint: mean survival time, dose: 11.0 mg/kg/injection, schedule: Q01DX009 (ip), vehicle: carboxymethylcellulose (CMC)): 101 % of control
T/C (endpoint: mean survival time, dose: 15.0 mg/kg/injection, schedule: Q01DX Z (ip), vehicle: carboxymethylcellulose (CMC)): 119 % of control
T/C (endpoint: mean survival time, dose: 16.75 mg/kg/injection, schedule: Q01DX009 (ip), vehicle: carboxymethylcellulose (CMC)): 100 % of control
T/C (endpoint: mean survival time, dose: 25.0 mg/kg/injection, schedule: Q01DX009 (ip), vehicle: carboxymethylcellulose (CMC)): 118 % of control
T/C (endpoint: mean survival time, dose: 37.5 mg/kg/injection, schedule: Q01DX009 (ip), vehicle: carboxymethylcellulose (CMC)): 124 % of control
T/C (endpoint: mean survival time, dose: 75.0 mg/kg/injection, schedule: Q01DX Z (ip), vehicle: carboxymethylcellulose (CMC)): 117 % of control
T/C [6]: 119 % of control
T/C (endpoint: mean survival time, dose: 100.0 mg/kg/injection, schedule: Q01DX009 (ip), vehicle: carboxymethylcellulose (CMC)): 154 % of control
T/C (endpoint: mean survival time, dose: 120.0 mg/kg/injection, schedule: Q01DX015 (ip), vehicle: carboxymethylcellulose (CMC)): 96 % of control
T/C (endpoint: mean survival time, dose: 178.0 mg/kg/injection, schedule: Q01DX001 (ip), vehicle: carboxymethylcellulose (CMC)): 108 % of control
T/C [7]: 152 % of control
T/C (endpoint: mean survival time, dose: 267.0 mg/kg/injection, schedule: Q01DX001 (ip), vehicle: carboxymethylcellulose (CMC)): 117 % of control
T/C (endpoint: mean survival time, dose: 600.0 mg/kg/injection, schedule: Q01DX001 (ip), vehicle: carboxymethylcellulose (CMC)): 123 % of control
T/C (endpoint: median survival time, dose: 12.5 mg/kg/injection, schedule: Q01DX011 (ip), vehicle: steriod suspending solution): 112 % of control
T/C (endpoint: median survival time, dose: 25.0 mg/kg/injection, schedule: Q01DX011 (ip), vehicle: steriod suspending solution): 112 % of control
T/C (endpoint: median survival time, dose: 100.0 mg/kg/injection, schedule: Q01DX011 (ip), vehicle: steriod suspending solution): 218 % of control

S=C(S)NCCCNC(=S)S
T/C (endpoint: mean survival time, dose: 100.0 mg/kg/injection, schedule: Q01DX001 (ip), vehicle: saline): 98 % of control and 103 % of control
T/C (endpoint: mean survival time, dose: 200.0 mg/kg/injection, schedule: Q01DX001 (ip), vehicle: saline): 95 % of control and 100 % of control
T/C (endpoint: mean survival time, dose: 400.0 mg/kg/injection, schedule: Q01DX001 (ip), vehicle: saline): 95 % of control

O=C(Nc1ccc(Cl)c(Cl)c1)OCCN(c1ccccc1)c1ccccc1
T/C [6]: 88 % of control
T/C [7]: 97 % of control
T/C (endpoint: mean survival time, dose: 400.0 mg/kg/injection, schedule: Q01DX001 (ip), vehicle: carboxymethylcellulose (CMC)): 92 % of control

CCC(C)C1CC1(Br)Br (configuration not stated)
T/C (endpoint: mean survival time, dose: 100.0 mg/kg/injection, schedule: Q04DX003 (ip), vehicle: saline with Tween-80): 100 % of control
T/C (endpoint: mean survival time, dose: 200.0 mg/kg/injection, schedule: Q04DX003 (ip), vehicle: saline with Tween-80): 100 % of control
T/C (endpoint: mean survival time, dose: 400.0 mg/kg/injection, schedule: Q04DX003 (ip), vehicle: saline with Tween-80): 98 % of control

OC(Cc1ccc2ccccc2n1)C(Cl)(Cl)Cl (configuration not stated)
T/C [1]: 103 % of control
T/C [2]: 91 % of control
T/C [3]: 101 % of control
T/C (endpoint: mean survival time, dose: 100.0 mg/kg/injection, schedule: Q01DX009 (ip), vehicle: saline with Tween-80): 101 % of control
T/C [4]: 93 % of control
T/C (endpoint: mean survival time, dose: 200.0 mg/kg/injection, schedule: Q01DX009 (ip), vehicle: saline with Tween-80): 89 % of control
T/C [5]: 101 % of control
T/C (endpoint: mean survival time, dose: 400.0 mg/kg/injection, schedule: Q01DX009 (ip), vehicle: saline with Tween-80): 114 % of control

CC1Oc2ccccc2OC1NC1=NCCO1 (configuration not stated)
T/C (endpoint: mean survival time, dose: 100.0 mg/kg/injection, schedule: Q01DX001 (ip), vehicle: Klucel (hydroxypropylcellulose) (HPC)): 97 % of control
T/C [8]: 100 % of control
T/C (endpoint: mean survival time, dose: 200.0 mg/kg/injection, schedule: Q01DX001 (ip), vehicle: Klucel (hydroxypropylcellulose) (HPC)): 103 % of control
T/C [9]: 100 % of control
T/C (endpoint: mean survival time, dose: 400.0 mg/kg/injection, schedule: Q01DX001 (ip), vehicle: Klucel (hydroxypropylcellulose) (HPC)): 102 % of control
T/C [10]: 108 % of control

[C](#[C][Sn]([c]1ccccc1)([c]1ccccc1)[c]1ccccc1)[Sn]([c]1ccccc1)([c]1ccccc1)[c]1ccccc1
T/C [8]: 94 % of control
T/C (endpoint: mean survival time, dose: 200.0 mg/kg/injection, schedule: Q04DX002 (ip), vehicle: saline): 92 % of control
T/C [9]: 95 % of control
T/C (endpoint: mean survival time, dose: 400.0 mg/kg/injection, schedule: Q04DX002 (ip), vehicle: saline): 92 % of control
T/C [10]: 111 % of control

COC(=O)C1CC2C(Cl)=C(Cl)C1(Cl)C2(Cl)Cl (configuration not stated)
T/C [11]: 107 % of control
T/C [12]: 123 % of control
T/C (endpoint: mean survival time, dose: 400.0 mg/kg/injection, schedule: Q01DX009 (ip), vehicle: saline): 102 % of control

Cc1ccc2c(c1)N(CCCN1CC[N+](C)(C)CC1)c1ccccc1S2
T/C (endpoint: mean survival time, dose: 10.0 mg/kg/injection, schedule: Q01DX001 (ip), vehicle: saline): 101 % of control
T/C (endpoint: mean survival time, dose: 20.0 mg/kg/injection, schedule: Q01DX001 (ip), vehicle: saline): 95 % of control
T/C (endpoint: mean survival time, dose: 40.0 mg/kg/injection, schedule: Q01DX001 (ip), vehicle: saline): 98 % of control
T/C (endpoint: mean survival time, dose: 80.0 mg/kg/injection, schedule: Q01DX001 (ip), vehicle: saline): 98 % of control

COc1cccc(NC(=O)Nc2ccccc2Cl)c1
T/C (endpoint: mean survival time, dose: 100.0 mg/kg/injection, schedule: Q01DX009 (ip), vehicle: gum acacia): 93 % of control
T/C (endpoint: mean survival time, dose: 100.0 mg/kg/injection, schedule: Q04DX003 (ip), vehicle: gum acacia): 92 % of control
T/C (endpoint: mean survival time, dose: 200.0 mg/kg/injection, schedule: Q01DX009 (ip), vehicle: gum acacia): 98 % of control
T/C (endpoint: mean survival time, dose: 200.0 mg/kg/injection, schedule: Q04DX003 (ip), vehicle: gum acacia): 90 % of control
T/C (endpoint: mean survival time, dose: 400.0 mg/kg/injection, schedule: Q01DX009 (ip), vehicle: gum acacia): 96 % of control
T/C (endpoint: mean survival time, dose: 400.0 mg/kg/injection, schedule: Q04DX003 (ip), vehicle: gum acacia): 94 % of control

CC(=O)OCc1ccccn1
T/C [11]: 97 % of control
T/C (endpoint: mean survival time, dose: 100.0 mg/kg/injection, schedule: Q04DX003 (ip), vehicle: saline): 94 % of control
T/C [12]: 97 % of control
T/C (endpoint: mean survival time, dose: 200.0 mg/kg/injection, schedule: Q04DX003 (ip), vehicle: saline): 99 % of control
T/C (endpoint: mean survival time, dose: 400.0 mg/kg/injection, schedule: Q04DX003 (ip), vehicle: saline): 93 % of control
